According to PMC8698454, “Anti-Colonization Effect of Au Surfaces with Self-Assembled Molecular Monolayers Functionalized with Antimicrobial Peptides on S. epidermidis” (Antibiotics, 2021):
Read-outs that look alike come from different tables or passages of the source.

What was measured:
Format in all cases: cell-based
[1] = test system: Escherichia coli ATCC 25922; settings: for Antimicrobial Activity (MIC) E. coli: ATCC 25922, broth microdilution CLSI M07-A9 (1a,1b,2a,2b) or broth dilution EUCAST (1c,1d,2c,2d), 0.5-256 µg/mL tested, biological triplicate, no visual growth; for MIC E. coli ATCC 25922: Table S3
Procedure: (§1) The minimal inhibitory concentration (MIC) of peptides 1a, 1b, 2a, and 2b were determined by broth microdilution according to the Clinical Laboratory Standard Institute (CLSI) method […]-A9. The MICs of the peptides 1c, 1d, 2c, and 2d were determined by broth dilution according to the European Committee for Antimicrobial Susceptibility Testing (EUCAST). Final concentrations of 0.5-256 μg/mL were tested against a panel of reference bacteria-S. aureus (ATCC 9144), S. epidermidis (1457), E. coli (ATCC 25922), and P. aeruginosa (ATCC 27853). Each strain was tested in biological triplicate. The MIC values were defined as the lowest concentration of the peptides resulting in no visual growth.

[2] = test system: Pseudomonas aeruginosa ATCC 27853; settings: for Antimicrobial Activity (MIC) P. aeruginosa: ATCC 27853, broth microdilution CLSI M07-A9 (1a,1b,2a,2b) or broth dilution EUCAST (1c,1d,2c,2d), 0.5-256 µg/mL tested, biological triplicate, no visual growth; for MIC P. aeruginosa ATCC 27853: Table S3
Procedure: as §1

[3] = test system: Staphylococcus aureus ATCC 9144; settings: for Antimicrobial Activity (MIC) S. aureus: ATCC 9144, broth microdilution CLSI M07-A9 (1a,1b,2a,2b) or broth dilution EUCAST (1c,1d,2c,2d), 0.5-256 µg/mL tested, biological triplicate, lowest concentration with no visual growth; for MIC S. aureus ATCC 9144: Table S3
Procedure: as §1

[4] = test system: Staphylococcus epidermidis 1457; settings: for MIC S. epidermidis 1457: Table S3; for Antimicrobial Activity (MIC) S. epidermidis: strain 1457, broth microdilution CLSI M07-A9 (1a,1b,2a,2b) or broth dilution EUCAST (1c,1d,2c,2d), 0.5-256 µg/mL tested, biological triplicate, no visual growth
Procedure: as §1

[5] = technical replicate 1, biological replicate BR1
[6] = technical replicate 1, biological replicate BR2
[7] = technical replicate 1, biological replicate BR3
[8] = technical replicate 2, biological replicate BR1
[9] = technical replicate 2, biological replicate BR2
[10] = technical replicate 2, biological replicate BR3
[11] = technical replicate 3, biological replicate BR1
[12] = technical replicate 3, biological replicate BR2
[13] = technical replicate 3, biological replicate BR3

| Substance | Antimicrobial Activity (MIC) E. coli [1] [µg/mL] | MIC E. coli ATCC 25922 [1, 5] [µg/mL] | MIC E. coli ATCC 25922 [1, 6] [µg/mL] | MIC E. coli ATCC 25922 [1, 7] [µg/mL] | MIC E. coli ATCC 25922 [1, 8] [µg/mL] | MIC E. coli ATCC 25922 [1, 9] [µg/mL] | MIC E. coli ATCC 25922 [1, 10] [µg/mL] | MIC E. coli ATCC 25922 [1, 11] [µg/mL] | MIC E. coli ATCC 25922 [1, 12] [µg/mL] | MIC E. coli ATCC 25922 [1, 13] [µg/mL] | Antimicrobial Activity (MIC) P. aeruginosa [2] [µg/mL] | MIC P. aeruginosa ATCC 27853 [2, 5] [µg/mL] | MIC P. aeruginosa ATCC 27853 [2, 6] [µg/mL] | MIC P. aeruginosa ATCC 27853 [2, 7] [µg/mL] | MIC P. aeruginosa ATCC 27853 [2, 8] [µg/mL] | MIC P. aeruginosa ATCC 27853 [2, 9] [µg/mL] | MIC P. aeruginosa ATCC 27853 [2, 10] [µg/mL] | MIC P. aeruginosa ATCC 27853 [2, 11] [µg/mL] | MIC P. aeruginosa ATCC 27853 [2, 12] [µg/mL] | MIC P. aeruginosa ATCC 27853 [2, 13] [µg/mL] | other results |
| --- | --- | --- | --- | --- | --- | --- | --- | --- | --- | --- | --- | --- | --- | --- | --- | --- | --- | --- | --- | --- | --- |
| N3-PEG200-RWWRF [1a, azidopeptide N3-PEG200-RWWRF, PEG200-linked, amidated C-terminus] | 256 | 128 | 256 | 256 | 128 | 256 | 256 | 128 | 256 | 256 | 256 | 256 | 256 | 256 | 256 | 256 | 256 | 256 | 256 | 256 | Antimicrobial Activity (MIC) S. aureus [3]: 64 µg/mL; MIC S. aureus ATCC 9144 [3, 5]: 64 µg/mL; MIC S. aureus ATCC 9144 [3, 6]: 64 µg/mL; MIC S. aureus ATCC 9144 [3, 7]: 64 µg/mL; MIC S. aureus ATCC 9144 [3, 8]: 64 µg/mL; MIC S. aureus ATCC 9144 [3, 9]: 64 µg/mL; MIC S. aureus ATCC 9144 [3, 10]: 64 µg/mL; MIC S. aureus ATCC 9144 [3, 11]: 64 µg/mL; MIC S. aureus ATCC 9144 [3, 12]: 64 µg/mL; MIC S. aureus ATCC 9144 [3, 13]: 64 µg/mL; MIC S. epidermidis 1457 [4, 5]: 32 µg/mL; MIC S. epidermidis 1457 [4, 6]: 32 µg/mL; MIC S. epidermidis 1457 [4, 7]: 32 µg/mL; MIC S. epidermidis 1457 [4, 8]: 32 µg/mL; MIC S. epidermidis 1457 [4, 9]: 32 µg/mL; MIC S. epidermidis 1457 [4, 10]: 32 µg/mL; MIC S. epidermidis 1457 [4, 11]: 32 µg/mL; MIC S. epidermidis 1457 [4, 12]: 32 µg/mL; MIC S. epidermidis 1457 [4, 13]: 32 µg/mL; Antimicrobial Activity (MIC) S. epidermidis [4]: 32 µg/mL |
| N3-PEG400-RBBRF [2b, azidopeptide N3-PEG400-RBBRF, B = biphenylalanine, amidated C-terminus] | 128 | 128 | 128 | 128 | 128 | 128 | 128 | 128 | 128 | 128 | 256 | 128 | 256 | 256 | 128 | 256 | 256 | 128 | 256 | 256 | Antimicrobial Activity (MIC) S. aureus [3]: 32 µg/mL; MIC S. aureus ATCC 9144 [3, 5]: 16 µg/mL; MIC S. aureus ATCC 9144 [3, 6]: 32 µg/mL; MIC S. aureus ATCC 9144 [3, 7]: 16 µg/mL; MIC S. aureus ATCC 9144 [3, 8]: 16 µg/mL; MIC S. aureus ATCC 9144 [3, 9]: 32 µg/mL; MIC S. aureus ATCC 9144 [3, 10]: 32 µg/mL; MIC S. aureus ATCC 9144 [3, 11]: 16 µg/mL; MIC S. aureus ATCC 9144 [3, 12]: 32 µg/mL; MIC S. aureus ATCC 9144 [3, 13]: 32 µg/mL; MIC S. epidermidis 1457 [4, 5]: 16 µg/mL; MIC S. epidermidis 1457 [4, 6]: 16 µg/mL; MIC S. epidermidis 1457 [4, 7]: 16 µg/mL; MIC S. epidermidis 1457 [4, 8]: 16 µg/mL; MIC S. epidermidis 1457 [4, 9]: 16 µg/mL; MIC S. epidermidis 1457 [4, 10]: 16 µg/mL; MIC S. epidermidis 1457 [4, 11]: 16 µg/mL; MIC S. epidermidis 1457 [4, 12]: 16 µg/mL; MIC S. epidermidis 1457 [4, 13]: 16 µg/mL; Antimicrobial Activity (MIC) S. epidermidis [4]: 16 µg/mL |
| N3-PEG400-RWWRF [1b, azidopeptide N3-PEG400-RWWRF, PEG400-linked, amidated C-terminus] | >256 | > 256 | > 256 | > 256 | > 256 | > 256 | > 256 | > 256 | > 256 | > 256 | >256 | > 256 | > 256 | > 256 | > 256 | > 256 | > 256 | > 256 | > 256 | > 256 | Antimicrobial Activity (MIC) S. aureus [3]: 128 µg/mL; MIC S. aureus ATCC 9144 [3, 5]: 128 µg/mL; MIC S. aureus ATCC 9144 [3, 6]: 128 µg/mL; MIC S. aureus ATCC 9144 [3, 7]: 128 µg/mL; MIC S. aureus ATCC 9144 [3, 8]: 128 µg/mL; MIC S. aureus ATCC 9144 [3, 9]: 128 µg/mL; MIC S. aureus ATCC 9144 [3, 10]: 128 µg/mL; MIC S. aureus ATCC 9144 [3, 11]: 128 µg/mL; MIC S. aureus ATCC 9144 [3, 12]: 128 µg/mL; MIC S. aureus ATCC 9144 [3, 13]: 128 µg/mL; MIC S. epidermidis 1457 [4, 5]: 128 µg/mL; MIC S. epidermidis 1457 [4, 6]: 128 µg/mL; MIC S. epidermidis 1457 [4, 7]: 64 µg/mL; MIC S. epidermidis 1457 [4, 8]: 128 µg/mL; MIC S. epidermidis 1457 [4, 9]: 128 µg/mL; MIC S. epidermidis 1457 [4, 10]: 128 µg/mL; MIC S. epidermidis 1457 [4, 11]: 128 µg/mL; MIC S. epidermidis 1457 [4, 12]: 128 µg/mL; MIC S. epidermidis 1457 [4, 13]: 64 µg/mL; Antimicrobial Activity (MIC) S. epidermidis [4]: 128 µg/mL |
